Here are results for 10 molecules from patent US6258800A, “Prodrugs of benzofuranylethyl carbamate NK1 antagonists” (Warner-Lambert Company, priority 2000, dated 2001).

The structures appear in SMILES notation. Counter-ions that a name gives are not always drawn. Bounds are passed on as bounds.

One data set in a line: Aqueous solubility. Type of data set: physicochemical. To be noted: water.
The nature of data set [1]: Conversion of prodrug to parent compound 1 after IV dosing (plasma HPLC). In kind it is in vivo. The note with it: male Wistar rats; for metabolised at 24 h: rat, n=3, slow IV bolus about 5 mg/kg parent-equivalent, parent compound 1 in plasma up to 24 h; for conversion to parent compound 1 in vivo (in words): IV administration. From the text: Male Wistar rats weighing 244 to 390 g were used in the in vivo experiments. The day before the experiment, the rats were surgically prepared. Rats were anesthetized with ether, and the right jugular vein was cannulated for intravenous dosing and/or systemic sampling. The cannula was exteriorized at the nape of the rat between the shoulder blades. The animals were allowed to recover overnight from surgery and fasted with water ad libitum.
Dosing solutions of the prodrugs (5, 25, 18, 34, 20c, 20d, 20e, and 20f) were prepared separately in 5% dextrose in water (D5W). Compound 20a was dissolved in 5% ethanol in D5W whereas compound 29 was dissolved in 20% ethanol, 20% polyethylene glycol 400 in D5W. Animals were randomly assigned to groups of three. The prodrug solutions were administered intravenously as a slow bolus at about 5 mg/kg parent-equivalent or orally as a gastric gavage at about 15 mg/kg parent-equivalent (Table 1 on Page 10 contains PO data). The cannula was subsequently rinsed with 1 mL D5W. Systemic blood was sampled predose and at selected times up to 24 hours after dosing. Blood samples (0.5 mL) were collected on ice, heparinized, and immediately centrifuged; then plasma was harvested and stored at -20° C. until analysis by HPLC.
The plasma samples were analyzed by validated HPLC assay for the parent compound 1. Plasma (200 μL) was spiked with 18 μL of internal standard ([2-(1H-indol-3-yl)-1-methyl-1-(1-phenyl-ethylcarbamoyl)-ethyl]-carbimic acid 4-ethyl-benzyl ester; 2.5 μM) and 400 μL acetonitrile (ACN) to precipitate protein. The supernatant was transferred to a clean test tube and evaporated to dryness. The residue was reconstituted in 50:50 ACN:water and injected onto the HPLC.
Detailed bioconversion data often prodrugs is found in Table 1 below.

Take `C[C@H](NC(=O)[C@@](C)(Cc1c[nH]c2ccccc12)NC(=O)OCc1cc2ccccc2o1)c1ccccc1` [Compound 1, 2-benzofuranylmethyl [R-(R*,S*)]-[1-(1H-indol-3-ylmethyl)-1-methyl-2-oxo-2-[(1-phenylethyl)amino]ethyl]carbamate, reference compound]: the solubility (commonly the dissolved amount per volume that the medium holds) in “Aqueous solubility” (parent drug) was under 1 µg/mL.
For `C[C@H](NC(=O)[C@@](C)(Cc1cn(P(=O)(O)O)c2ccccc12)NC(=O)OCc1cc2ccccc2o1)c1ccccc1` [Compound 5, {3-[2-(Benzofuran-2-ylmethoxycarbonylamino)-2-(1-phenyl-ethylcarbamoyl)propyl]-indol-1-yl}-phosphonic acid disodium salt], the metabolised at 24 h in data set [1] turned out to be 11.7 ± 0.84%.
Consider `C[C@H](NC(=O)[C@@](C)(Cc1cn(C(=O)OCOC(=O)c2ccc(COP(=O)(O)O)cc2)c2ccccc12)NC(=O)OCc1cc2ccccc2o1)c1ccccc1` [Compound 18, 3-[2-(Benzofuran-2-ylmethoxycarbonylamino)-2-(1-phenyl-ethylcarbamoyl)propyl]-indol-1-carboxylic acid phosphonooxymethylbenzoyloxymethyl ester disodium salt], for which, in data set [1], the “conversion to parent compound 1 in vivo (in words)” value (shortened to “conversion”) is recorded as “highest reconversion” and the metabolised at 24 h was found to be 59.5 ± 21.3%.
Regarding `C[C@H](NC(=O)[C@@](C)(Cc1cn(C(=O)OCOC(=O)c2ccc(CN(C)C)cc2)c2ccccc12)NC(=O)OCc1cc2ccccc2o1)c1ccccc1` [Compound 20a, 3-[2-(Benzofuran-2-ylmethoxycarbonylamino)-2-(1-phenyl-ethylcarbamoyl)-propyl]-indole-1-carboxylic acid 4-dimethylaminomethyl-benzoyloxymethyl ester monohydrochloride salt], in data set [1], the “conversion” value is “higher conversion than the phosphate prodrugs” and the metabolised at 24 h came to 86.9 ± 18.6%. Further, the “aqueous solubility (in words)” value in “Aqueous solubility” is “not water-soluble”.
Consider `C[C@H](NC(=O)[C@@](C)(Cc1cn(C(=O)OCOC(=O)c2ccc(CN3CCN(C)CC3)cc2)c2ccccc12)NC(=O)OCc1cc2ccccc2o1)c1ccccc1` [Compound 20c, 3-[2-(Benzofuran-2-ylmethoxycarbonylamino)-2-(1-phenyl-ethylcarbamoyl)-propyl]-indole-1-carboxylic acid 4-(4-methyl-piperazin-1-methyl)-benzoyloxymethyl ester dihydrochloride salt], for which, in data set [1], the “conversion” value is given as “comparable reconversion as (20a)” and the metabolised at 24 h was determined as 68 ± 5.2%.
`C[C@H](NC(=O)[C@@](C)(Cc1cn(C(=O)OCOC(=O)c2ccc(CN3CCN(CCO)CC3)cc2)c2ccccc12)NC(=O)OCc1cc2ccccc2o1)c1ccccc1` [Compound 20d, 3-[2-(Benzofuran-2-ylmethoxycarbonylamino)-2-(1-phenyl-ethylcarbamoyl)-propyl]-indole-1-carboxylic acid 4-[4-(2-hydroxy-ethyl)-piperazin-1-ylmethyl]-benzoyloxymethyl ester dihydrochloride salt]: in data set [1], the “conversion” value is reported as “comparable reconversion as (20a)” and the metabolised at 24 h was 64.2 ± 14.3%.
The matching figures for `C[C@H](NC(=O)[C@@](C)(Cc1cn(C(=O)OCOC(=O)c2ccc(CN3CCNCC3)cc2)c2ccccc12)NC(=O)OCc1cc2ccccc2o1)c1ccccc1` [Compound 20e, 3-[2-(Benzofuran-2-ylmethoxycarbonylamino)-2-(1-phenyl-ethylcarbamoyl)-propyl]-indole-1-carboxylic acid 4-piperazin-1-ylmethyl-benzoyloxymethyl ester dihydrochloride salt]: “comparable reconversion as (20a)” and 88.5 ± 9.2%.
The like results for `C[C@H](NC(=O)[C@@](C)(Cc1cn(C(=O)OCOC(=O)c2ccc(CN(C)CCN(C)C)cc2)c2ccccc12)NC(=O)OCc1cc2ccccc2o1)c1ccccc1` [Compound 20f, 3-[2-(Benzofuran-2-ylmethoxycarbonylamino)-2-(1-phenyl-ethylcarbamoyl)-propyl]-indole-1-carboxylic acid 4-{[(2-dimethylamino-ethyl)-methyl-amino]-methyl}-benzoyloxymethyl ester dihydrochloride salt] were, in that order, “comparable reconversion as (20a)” and 104 ± 38.2%.
`C[C@H](NC(=O)[C@@](C)(Cc1cn(C(=O)c2ccccc2COP(=O)(O)O)c2ccccc12)NC(=O)OCc1cc2ccccc2o1)c1ccccc1` [Compound 25, {1-Methyl-1-(1-phenyl-ethylcarbamoyl)-2-[1-(2-phosphonooxymethyl-benzoyl)-1H-indol-3-yl]-ethyl}-carbamic acid benzofuran-2-ylmethyl ester disodium salt]: in data set [1], the metabolised at 24 h was found to be 19.9 ± 1.07%.
For `Cc1cc(C)c(C(C)(C)CC(=O)n2cc(C[C@@](C)(NC(=O)OCc3cc4ccccc4o3)C(=O)N[C@@H](C)c3ccccc3)c3ccccc32)c(OP(=O)(O)O)c1` [Compound 34, [2-{1-[3-(2,4-Dimethyl-6-phosphonooxy-phenyl)-3-methylbutyryl]-1H-indol-3-yl}-1-methyl-1-(1-phenylethylcarbamoyl)ethyl]carbamic acid benzofuran-2-ylmethyl ester disodium salt], in data set [1], the “conversion” value is on record as “lowest bioconversion in vivo”. The metabolised at 24 h in data set [1] (in vivo) came out at 9.35 ± 4.12%.
